Reference: patent US10822450B2, “Poly(glycerol sebacate)-interleukin inhibitor copolymers and methods of making and use” (THE SECANT GROUP, LLC, priority 2017, dated 2020)

Format: physicochemical
Conditions: pH 11
Protocol: A PGS-aspirin copolymer from Example 6 was thermoset by heating to 130° C. at a pressure of 10 Torr for 72 hours. Three thin cylindrical disks, each having a diameter of 10 mm, were punched out of the resultant thin film, which was about 1 mm thick.
Each disk was placed in 10 mL of 0.09 M phosphate-buffered saline (PBS) at a pH of 11 and a temperature of 37° C. for four weeks. At 1-week intervals, the solution was removed and tested for salicylic acid content by UV analysis at a wavelength of 303 nm and for pH. Each sample was rinsed three times with distilled water and vacuum dried prior to being placed in fresh PBS.

PGS-aspirin copolymer [Example 8]
disk integrity during degradation: began to fall apart
